Source: patent US5051419A, “Prevention or elimination of mycoplasma contamination of animal or plant cell cultures” (Dainippon Pharmaceutical Co., Ltd., priority 1988, dated 1991)
In brackets after ≈: the same amount, converted by molar mass.

Columns and labels:
M. salivarium PG20 = assay: Anti-mycoplasmal activity (MIC), agar-dilution method; assay type: cell-based, Mycoplasma salivarium; details: Metamycoplasma salivarium; agar dilution; M. salivarium PG20; read-out: MIC
Description: (§1) The minimum growth inhibitory concentrations (MIC; μg/ml) of the test chemicals were measured by the agar-dilution method.
(§2) (1) Preparation of a mycoplasma suspension for inoculation
(§3) A stored frozen suspension of mycoplasma (0.2 to 0.3 ml) was inoculated in 2 to 3 ml of a preculture medium to be described later. It was serially diluted tenfold until the dilution ratio reached 10,000 times. These diluted solutions were cultivated at 37° C. for 2 to 7 days. A culture having the highest dilution ratio was selected from those cultures in which a color change of the media was noted as a result of mycoplasma growth. It was diluted to 100 times with the preculture medium to prepare a mycoplasma suspension for inoculation.
(§4) The following preculture media were used.
For other mycoplasma species, Chanock liquid medium (pH 6.8) containing 0.2% arginine was used.
(§5) (2) Preparation of agar plates containing the test chemicals
(§6) A 1,000 μg/ml aqueous solution of each test chemical was prepared (a difficultly-soluble chemical was dissolved by adding an equimolar amount of sodium hydroxide; the same applies hereinafter). The solution was used as a base solution and its twofold serial dilutions were prepared. The diluted solutions were pipetted on plastic petri dishes each in an amount of 1 ml. The Chanock agar medium (for Mycoplasma hyorhinis, 0.5% mucin was further added) described at page 9 of the above cited "Procedures for Isolation and Identification of Human, Animal and Plant Mycoplasmas" was heated and kept at 55° C. and put in an amount of 9 ml in each of the petri dishes containing the test chemicals and fully mixed with the test chemicals to prepare agar plates containing the test chemicals.
(§7) The mycoplasma suspension for inoculation prepared by the procedure described in section (1) was inoculated in an amount of about 3 microliters on each of the chemical-containing agar plates by means of a Cathra-replicator (3 mm pin). The plates on which Mycoplasma pneumoniae, Mycoplasma arginini, and Acholeplasma laidlawii and Mycoplasma hyorhinis were inoculated were tightly packed in a plastic bag together with the plasic petri dishes including water-immersed absorbent cotton. Mycoplasma pneumoniae was aerobically cultivated at 37° C. under highly humid conditions for 7 days; and Mycoplasma arginini and Acholeplasma laidlawii, for 2 days. The other mycoplasma species were cultivated anaerobically for 2 days by using a GasPak anaerobic system (BBL). After the cultivation, growth of mycoplasma were observed under an OLYMPUS microscope (20-100 X). The lowest concentration of the test chemical at which no growth of mycoplasma was noted is defined as MIC.

mycoplasma = assay: Anti-mycoplasmal activity (MIC), agar-dilution method, all species of Table 1 together; assay type: cell-based; details: in words
Description: as §1, §2, §3, §5
A 1,000 μg/ml aqueous solution of each test chemical was prepared (a difficultly-soluble chemical was dissolved by adding an equimolar amount of sodium hydroxide; the same applies hereinafter). The solution was used as a base solution and its twofold serial dilutions were prepared. The diluted solutions were pipetted on plastic petri dishes each in an amount of 1 ml. […]

[1] = system: spontaneously contaminated human lung carcinoma cells [I]; assay: Activity of eliminating spontaneously contaminated mycoplasmas, cell [I]; assay type: cell-based, mycoplasma species unknown; human cells; note: key: +: mycoplasma positive; -: mycoplasma negative
Description: (§8) Mycoplasma-contaminated L-929 cells were cultivated as described in the preceding section. A 1,000 μg/ml aqueous solution of a test chemical was prepared, and diluted to predetermined concentrations with Eagle's minimum essential medium. The diluted solutions were added to the culture medium. Two petri dishes were used for each concentration of the test chemical, and two circular cover glasses were put in one of them for examination of mycoplasma. No cover glass was put in the other petri dish, and it was used for subcultivation. Cultivation in the test chemical-containing medium was carried out for 4 days, and thereafter, the cultivation was continued for 3 weeks in a drug-free medium. Medium replacement was effected every 3 to 4 days, and subcultivation was carried out once a week. Examination for mycoplasma contamination was performed on the 4th and 7th days, and thereafter every week. The mycoplasmas were detected by the highly specific DNA-fluorochromic staining method.
(§9) The activity of test compound to eliminate mycoplasma contamination was tested as in Test Example 3 on spontaneously contaminated human lung carcinoma cells [I] and human melanoma cells [II].
(§10) The period during which the cultivation was continued in the presence of the test chemicals was 7 days, and the mycoplasma species which infected the cells were unknown.

Staphylococcus aureus = assay: Antibacterial activity (MIC); assay type: cell-based; details: for MIC: unit inferred
[2] = system: human melanoma cells [II]; assay: Activity of eliminating spontaneously contaminated mycoplasmas, cell [II]; assay type: cell-based, mycoplasma species unknown; human cells; note: key: +: mycoplasma positive; -: mycoplasma negative
Description: as §8, §9, §10

M. orale CH-19299 = assay: Anti-mycoplasmal activity (MIC, MMC), liquid dilution method; assay type: cell-based, Mycoplasma orale; details: Metamycoplasma orale, liquid dilution, M. orale CH-19299; for MBC: CH19299, 120 h, read-out: MMC; for MIC: CH19299, read-out: MIC
Description: The minimum growth inhibitory concentration (MIC, μg/ml) and minimum mycoplasmacidal concentration (MMC, μg/ml) of test chemicals were measured by the liquid dilution method. The method of measuring MIC in this example differs from that used in Test Example 1.
A 1,000 μg/ml aqueous solution of a test chemical was prepared, and diluted to 5 times with a preculture medium. The dilution (200 μg/ml) was serially diluted twofold with the same medium in a 8-well reservoir. Fifty microliters of each diluted solution was distributed in the wells of a microplate. A well to which no test chemical was added was used as a control.
A mycoplasma suspension for inoculation prepared as in Test Example 1 was pipetted in an amount of 50 microliters to each of the wells. The microplates were sealed by a plate seal, shaken by a micromixer, and cultivated at 37° C. for 5 days. In the control to which no test chemical was added, color change of the medium by the growth of mycoplasma was observed after two days from the start of the cultivation. At this time, 3 microliters of the liquid culture was inoculated in drug-free Chanock agar medium by using a Cathra-replicator. The liquid culture and the agar medium were further cultivated at 37° C. for 3 days (anaerobically in the case of M. orale, and aerobically in the case of A. laidlawii and M. arginini). MIC and MMC were determined from the results of observation on the 5th day. MIC was defined as the lowest concentration of the test chemical at which growth of mycoplasma in the drug-containing liquid medium was not noted, and MMC, as that in the drug-free agar medium.

M. hyorhinis BST7 = assay: Anti-mycoplasmal activity (MIC), agar-dilution method; assay type: cell-based, Mycoplasma hyorhinis; details: Mesomycoplasma hyorhinis; agar dilution; M. hyorhinis BST7; read-out: MIC
Description: as §1, §2, §3, §4
For Mycoplasma hyorhinis, a liquid medium (pH 7.8) for isolation of Mycoplasma hyorhinis [Journal of the Japan Veterinary Medical Association,32, 34-38 (1979)] was used.
as §5, §6, §7

FL human-amnion cells = assay: Cytotoxicity on FL cells (cell proliferation inhibition); assay type: cell-based; details: for IC50: Homo sapiens, 72 h, FL cells, 3 days, read-out: IC50 (50% cell proliferation inhibitory concentration)
Description: (§11) Whether test chemicals would inhibit growth of cells was examined.
(§12) A 1,000 μg/ml aqueous solution of each of the test chemicals was serially diluted twofold with Eagle's minimum essential medium.
(§13) FL human-amnion cells (2×10^4 cells) were suspended in 3.6 ml of 10% FBS-MEM medium, put in petri dishes (diameter 60 mm) for tissue culture, and cultivated at 37° C. in 5% CO2 humidified atmosphere for 48 hours. The test chemical solution prepared as above was added in an amount of 0.4 ml to each of the petri dishes in predetermined concentrations, and the cells were cultivated for 3 days. After the cultivation, the medium was removed, and the remainder was washed once with Dulbecco's phosphate buffer (pH 7.4). The cells were peeled off by adding 0.2 ml of a 2.5% trypsin-0.002% EDTA mixed solution (1:9) and properly diluted with 10% FBS-MEM medium. Then, the number of the cells was counted by an Erma hemocytometer.
(§14) The cell proliferation rate was calculated by following formula [formula]

[3] = as above; assay type: cell-based, human; details: human, fl human amnion cells; ratio of FL cell IC50 to MIC for mycoplasmas
Description: as §11, §12, §13, §14

With `CC1CN(c2c(F)c(N)c3c(=O)c(C(=O)O)cn(C4CC4)c3c2F)CCN1` (stereo not drawn) [Compound 1] the MIC (M. salivarium PG20) was 0.2 µg/mL (≈ 0.529 µM), the “anti-mycoplasmal activity (MIC) compared with control compounds” value (mycoplasma) was “better than those of control compounds 2 to 4” and the mycoplasma elimination ([1]; 0.2 μg/ml, day 0) was “+”. The mycoplasma elimination ([1]; 0.2 μg/ml, day 7) was “+”, the mycoplasma elimination ([1]; 0.2 μg/ml, day 14) was “+” and the mycoplasma elimination ([1]; 0.2 μg/ml, day 28) was “+”. The mycoplasma elimination ([1]; 0.39 μg/ml, day 0) was “+”, the mycoplasma elimination ([1]; 0.39 μg/ml, day 7) was “-” and the mycoplasma elimination ([1]; 0.39 μg/ml, day 14) was “-”. The mycoplasma elimination ([1]; 0.39 μg/ml, day 28) was “-”, the MIC (Staphylococcus aureus; Staphylococcus aureus) was 0.025 µg/mL (≈ 0.0661 µM) and the mycoplasma elimination ([2]; 0.2 μg/ml, day 0) was “+”. For the same compound, the mycoplasma elimination ([2]; 0.2 μg/ml, day 7) was “-”, the mycoplasma elimination ([2]; 0.2 μg/ml, day 14) was “+” and the mycoplasma elimination ([2]; 0.2 μg/ml, day 21) was “+”. For the same compound, the mycoplasma elimination ([2]; 0.2 μg/ml, day 28) was “+”, the mycoplasma elimination ([2]; 0.39 μg/ml, day 0) was “+” and the mycoplasma elimination ([2]; 0.39 μg/ml, day 7) was “-”. For the same compound, the mycoplasma elimination ([2]; 0.39 μg/ml, day 14) was “-”, the mycoplasma elimination ([2]; 0.39 μg/ml, day 21) was “-” and the mycoplasma elimination ([2]; 0.39 μg/ml, day 28) was “-”. For the same compound, the MBC (M. orale CH-19299) was 0.39 µg/mL (≈ 1.03 µM), the MIC (M. orale CH-19299) was 0.39 µg/mL (≈ 1.03 µM) and the MIC (M. hyorhinis BST7) was 0.2 µg/mL (≈ 0.529 µM). For the same compound, the IC50 (FL human-amnion cells) was 13.2 µg/mL (≈ 34.9 µM) and the selectivity ratio at 72 h [3] was 66 to 528.
With `CN(C)c1ccc(O)c2c1C[C@H]1C[C@H]3[C@H](N(C)C)C(O)=C(C(N)=O)C(=O)[C@@]3(O)C(O)=C1C2=O` [Compound 3, minocycline] the MIC (M. salivarium PG20) was 0.1 µg/mL (≈ 0.219 µM), the MBC (M. orale CH-19299) was 25 µg/mL (≈ 54.6 µM) and the MIC (M. orale CH-19299) was 0.39 µg/mL (≈ 0.852 µM). It also gave an MIC (M. hyorhinis BST7) of 0.1 µg/mL (≈ 0.219 µM).
With `NCC1CN(c2c(F)c(N)c3c(=O)c(C(=O)O)cn(C4CC4)c3c2F)CCO1` (stereo not drawn) [Compound A, 5-amino-7-(2-aminomethylmorpholino)-1-cyclopropyl-6,8-difluoro-1,4-dihydro-4-oxoquinoline-3-carboxylic acid] the MIC (M. salivarium PG20) was 0.1 µg/mL (≈ 0.254 µM), the “anti-mycoplasmal activity (MIC) compared with control compounds” value (mycoplasma) was “more potent than those of control compounds 1 to 4” and the mycoplasma elimination ([1]; 0.1 μg/ml, day 0) was “+”. The mycoplasma elimination ([1]; 0.1 μg/ml, day 7) was “+”, the mycoplasma elimination ([1]; 0.1 μg/ml, day 14) was “+” and the mycoplasma elimination ([1]; 0.1 μg/ml, day 28) was “+”. The mycoplasma elimination ([1]; 0.2 μg/ml, day 0) was “+”, the mycoplasma elimination ([1]; 0.2 μg/ml, day 7) was “-” and the mycoplasma elimination ([1]; 0.2 μg/ml, day 14) was “-”. The mycoplasma elimination ([1]; 0.2 μg/ml, day 28) was “-”, the MIC (Staphylococcus aureus; Staphylococcus aureus) was 0.0063 µg/mL (≈ 0.016 µM) and the antibacterial activity (Staphylococcus aureus; in words) was “potent antibacterial activity and is superior to control compounds 1 to 4”. For the same compound, the “antibacterial activity relative to compound 1” value (Staphylococcus aureus; in words, Staphylococcus aureus) was “about four times as potent antibacterial activity as compound 1”, the mycoplasma elimination ([2]; 0.1 μg/ml, day 0) was “+” and the mycoplasma elimination ([2]; 0.1 μg/ml, day 7) was “-”. For the same compound, the mycoplasma elimination ([2]; 0.1 μg/ml, day 14) was “+”, the mycoplasma elimination ([2]; 0.1 μg/ml, day 21) was “+” and the mycoplasma elimination ([2]; 0.1 μg/ml, day 28) was “+”. For the same compound, the mycoplasma elimination ([2]; 0.2 μg/ml, day 0) was “+”, the mycoplasma elimination ([2]; 0.2 μg/ml, day 7) was “-” and the mycoplasma elimination ([2]; 0.2 μg/ml, day 14) was “-”. The mycoplasma elimination ([2]; 0.2 μg/ml, day 21) was “-”, the mycoplasma elimination ([2]; 0.2 μg/ml, day 28) was “-” and the MBC (M. orale CH-19299) was 0.05 µg/mL (≈ 0.127 µM). It also gave an MIC (M. orale CH-19299) of 0.05 µg/mL (≈ 0.127 µM), an MIC (M. hyorhinis BST7) of 0.05 µg/mL (≈ 0.127 µM) and an IC50 (FL human-amnion cells) of 18 µg/mL (≈ 45.6 µM). The safety range (FL human-amnion cells; in words, IC50/MIC) was “the safety range is broadest in compound A”, the “toxicity on cultivated cells” value (FL human-amnion cells; in words, summary) was “little toxicity on cultivated cells” and the selectivity ratio at 72 h [3] was 180 to 1440.
